These results are taken from patent US8697720B2 (Crestone, Inc., priority 2006, dated 2014).

Test [1] relates to C. difficile strain ATCC43255. Put plainly: Toxin A production in high cell density stationary phase C. difficile cultures (ELIFA). It is filed as cell-based. Particulars: 4 day old stationary phase cultures, toxin A by ELIFA. The procedure: C. difficile strain ATCC43255 was grown and maintained anaerobically on CDC anaerobe agar (Remel, Lenexa, Kans.). To test the effect of antibacterial agents on growth, cells were grown anaerobically for 40 h at 35° C. in 96-well brain heart infusion (BHI) broth cultures, with an initial inoculum of 10^6 CFU/mL. To test the effect of antibacterial agents on toxin production at high C. difficile cell densities, the cells were grown anaerobically for 24 h at 35° C. in 96-well brain heart infusion (BHI) broth cultures. Spent medium was then replaced with fresh broth containing MetRS inhibitors and control agents at a concentration range of 0.015-16 μg/mL. After 4 days, growth and cell viability were monitored by optical density measurements at 595 nm and by culture on CDC anaerobe agar, respectively. Culture supernatants were collected, and toxin A was detected by ELIFA (enzyme-linked immuno-flow assay) using an anti toxin A monoclonal antibody (Novus Biologicals, Centennial, Colo.).

Test [2] has as its system C. difficile. Put plainly: C. difficile-infected hamster survival study. It is filed as in vivo. Here is the method:
Animal studies were performed to determine the efficacy of MetRS inhibitors for treating C. difficile-infections. The MetRS inhibitors tested were 5-[3-((R)-6,8-Dibromo-chroman-4-ylamino)-propylamino]-4H-thieno[3,2-b]pyridine-7-one (both racemic mixture and the R enantiomer), 5-[3-((R)-8-Bromo-6-chloro-chroman-4-ylamino)-propylamino]-4H-thieno[3,2-b]pyridin-7-one, and 2-(3-{3,5-Dibromo-2-[2-(4-methyl-thiazol-5-yl)-ethoxy]-benzylamino}-propylamino)-1H-quinolin-4-one.
Results were compared to C. difficile-infected hamsters treated with the conventional antibiotic, vancomycin. Infected hamsters were treated with either a solution or suspension of a MetRS inhibitor at 5 to 50 mg/kg or vancomycin at 2.5, 5 or 25 mg/kg. There were eight hamsters per group with the final endpoint of the experiment being survival. Expired hamsters were examined for GI condition.

Each structure is given as a SMILES string.

Regarding `Cc1ncsc1CCOc1c(Br)cc(Br)cc1CNCCCNc1cc(=O)c2sccc2[nH]1`, the “concentrations that inhibited toxin production” value in test [1] was 0.25 µg/mL. Same read-out and setting: then `Cl.Cl.Cl.O=c1cc(NCCCNC2CCNc3c(Br)cc(Br)cc32)[nH]c2ccsc12` (stereo not drawn) [5-[3-(6,8-Dibromo-1,2,3,4-tetrahydro-quinolin-4-ylamino)-propylamino]-4H-thieno[3,2-b]pyridin-7-one tri-hydrochloride], with 0.25 µg/mL. On the same count and under the same terms, the result for `O=c1cc(NCCCNC2CCOc3c(Br)cc(Br)cc32)[nH]c2ccsc12` (stereo not drawn) [5-[3-(6,8-Dibromo-chroman-4-ylamino)-propylamino]-4H-thieno[3,2-b]pyridin-7-one] reads 0.25 µg/mL. As to `O=c1cc(NCCCN[C@@H]2CCOc3c(Br)cc(Br)cc32)[nH]c2ccsc12` [5-[3-((R)-6,8-Dibromo-chroman-4-ylamino)-propylamino]-4H-thieno[3,2-b]pyridine-7-one], in test [2] (MetRS inhibitor at 5 to 50 mg/kg, untreated controls died within 3-4 days), the “survival of infected hamsters” value was “best efficacy”. `Cl.Cl.O=c1cc(NCCCN[C@@H]2CCOc3c(Br)cc(Br)cc32)[nH]c2ccsc12` [R-(+)-5-[3-(6,8-Dibromo-chroman-4-ylamino)-propylamino]-4H-thieno[3,2-b]pyridin-7-one di-hydrochloride]: the “concentrations that inhibited toxin production” value in test [1] stood at 0.25 µg/mL.

For the compound `CN[C@H](CC(C)C)C(=O)N[C@H]1C(=O)N[C@@H](CC(N)=O)C(=O)N[C@H]2C(=O)N[C@H]3C(=O)N[C@H](C(=O)N[C@H](C(=O)O)c4cc(O)cc(O)c4-c4cc3ccc4O)[C@H](O)c3ccc(c(Cl)c3)Oc3cc2cc(c3O[C@@H]2O[C@H](CO)[C@@H](O)[C@H](O)[C@H]2O[C@H]2C[C@](C)(N)[C@H](O)[C@H](C)O2)Oc2ccc(cc2Cl)[C@H]1O` [vancomycin, reference compound], in test [2] (Day 28, vancomycin at 2.5, 5 or 25 mg/kg), the survival with vancomycin was 0-10%.
